In patent publication US12042564B2, “Therapeutic solid dosage forms” (CYBIN UK LTD, priority 2020, dated 2024):
Where “and” joins values, the source holds several entries; their conditions need not be identical. Identical values can stand only once.

Tests used:
[1] = Plasma IAA metabolite levels after oral dosing in rats; settings: for Estimated IAA Concentration / Estimated IAA Concentration, Mean: rat plasma, PO Dose (25 mg/kg); for Estimated IAA Concentration: individual animal; for Estimated IAA Concentration, Mean: mean of animals
[2] = Solubility of DMT fumarate at different pH values in Britton-Robinson buffer; settings: before pH adjustment
[3] = cited from earlier work
[4] = tested on: human liver mitochondrial fraction; test: Intrinsic clearance and half-life in human liver mitochondrial fraction; format: in vitro ADME; settings: 0.5 mg/mL human liver mitochondrial fraction, 1 μM test compounds
Source text: Use of Liver Mitochondrial Fraction to Model Human Metabolism of Deuterated DMT

[5] = Initial solubility test of DMT fumarate in aqueous vehicles; format: physicochemical
Protocol: Solubility of DMT fumarate was assessed at a concentration of 10 mg/ml in a small selection of aqueous vehicles (water, saline, 20 mM phosphate buffer and a combination of buffer and saline).
Phosphate buffer (100 ml) was prepared using 219.53 mg of the dibasic form [HPO4][Na]2 with 183.7 mg of the monobasic form [H2PO4]Na, both dihydrate salts. The solution was adjusted to pH 7.0 with addition of NaOH (1 M) and then made to volume. 10 ml of a 10 mg/ml formulation was prepared.
To prepare this, sodium chloride was first dissolved in water to produce the saline solution (100 ml, 0.45% w/v). The phosphate salts, in the quantities described above, were then dissolved in the saline solution and the pH was adjusted using NaOH (1 M).
The pH of these solutions was in the range 3-4.

[6] = Plasma pharmacokinetics of test compound after oral dosing in rats; settings: rat plasma; for Determined Concentration of test compound in plasma / Determined Concentration of test compound in plasma, Mean: oral dosing; for Determined Concentration of test compound in plasma: individual animal; for Determined Concentration of test compound in plasma, Mean: mean of 3 animals

CN(C)CCc1c[nH]c2ccccc12.O=C(O)/C=C/C(=O)O [SPL026, N,N-dimethyltryptamine (DMT) fumarate salt]
Mean IAA Cmax ([1]; rat plasma IAA (semi quantified) after 25 mg/kg PO of the compound): 9.204 ng/mL | Mean IAA tmax ([1]; rat plasma IAA after 25 mg/kg PO of the compound): 30 min | Estimated IAA Concentration ([1]; 1 min): BLQ | Estimated IAA Concentration, Mean ([1]; 1 min): BLQ | Estimated IAA Concentration ([1]; 5 min, fumarate salt, 25 mg/kg): 0.549 ng/mL and 1.33 ng/mL and 1.64 ng/mL | Estimated IAA Concentration, Mean ([1]; 5 min): 1.171 ng/mL | Estimated IAA Concentration ([1]; 10 min, fumarate salt, 25 mg/kg): 1.08 ng/mL and 2.58 ng/mL and 4.39 ng/mL | Estimated IAA Concentration, Mean ([1]; 10 min): 2.683 ng/mL | Estimated IAA Concentration ([1]; 15 min, fumarate salt, 25 mg/kg): 1.82 ng/mL and 5.55 ng/mL and 6.09 ng/mL | Estimated IAA Concentration, Mean ([1]; 15 min): 4.487 ng/mL | Estimated IAA Concentration ([1]; 30 min, fumarate salt, 25 mg/kg): 7.08 ng/mL and 11.8 ng/mL and 8.88 ng/mL | Estimated IAA Concentration, Mean ([1]; 30 min): 9.245 ng/mL | Estimated IAA Concentration ([1]; 45 min, fumarate salt, 25 mg/kg): 5.10 ng/mL and 6.44 ng/mL and 9.98 ng/mL | Estimated IAA Concentration, Mean ([1]; 45 min): 7.174 ng/mL | Estimated IAA Concentration ([1]; 60 min, fumarate salt, 25 mg/kg): 6.18 ng/mL and 9.74 ng/mL and 11.7 ng/mL | Estimated IAA Concentration, Mean ([1]; 60 min): 9.204 ng/mL | Estimated IAA Concentration ([1]; 120 min, fumarate salt, 25 mg/kg): 7.40 ng/mL and 7.70 ng/mL and 8.67 ng/mL | Estimated IAA Concentration, Mean ([1]; 120 min): 7.924 ng/mL | Estimated IAA Concentration ([1]; 180 min, fumarate salt, 25 mg/kg): 4.34 ng/mL and 2.53 ng/mL and 3.08 ng/mL | Estimated IAA Concentration, Mean ([1]; 180 min): 3.316 ng/mL | Estimated IAA Concentration ([1]; Predose): BLQ | Estimated IAA Concentration, Mean ([1]; Predose): BLQ | dissolution at 20 mg/ml in Britton-Robinson buffer solution [2]: very soluble | predicted half-life in humans ([3]; humans): 5 min | duration of action ([3]; psychedelic effect): under 20 minutes | Half-life (min) R1 ([4]; 5 μM Serotonin and Benzylamine controls, replicate 1): 8.8 min | Half-life (min) Mean ([4]; 5 μM controls, mean of replicates): 8.3 min | Half-life (min) R3 ([4]; 5 μM controls, replicate 3): 7.6 min | Half-life (min) R4 ([4]; 5 μM controls, replicate 4): 8.3 min | pH of these solutions ([5]; 10 mg/ml in aqueous vehicles): 3-4 | Solubility at a concentration of 10 mg/ml in aqueous vehicles ([5]; water, saline, 20 mM phosphate buffer, buffer and saline): readily soluble | mean Cmax ([6]; 25 mg/kg single oral gavage): 27.9 ng/mL | Determined Concentration of test compound in plasma ([6]; 1 min, fumarate salt): BLQ (Below the lower limit of quantification 0.310 ng/mL) (2×) and 0.391 ng/mL | Determined Concentration of test compound in plasma, Mean ([6]; 1 min): <0.3 ng/mL | Determined Concentration of test compound in plasma ([6]; 5 min, fumarate salt): BLQ (Below the lower limit of quantification 0.310 ng/mL) (2×) and 0.590 ng/mL | Determined Concentration of test compound in plasma, Mean ([6]; 5 min): <0.4 ng/mL | Determined Concentration of test compound in plasma ([6]; 10 min, fumarate salt): BLQ (Below the lower limit of quantification 0.310 ng/mL) and 4.06 ng/mL and 20.7 ng/mL | Determined Concentration of test compound in plasma, Mean ([6]; 10 min): <8.4 ng/mL | Determined Concentration of test compound in plasma ([6]; 15 min, fumarate salt): 0.763 ng/mL and 19.9 ng/mL and 25.7 ng/mL | Determined Concentration of test compound in plasma, Mean ([6]; 15 min): 15.5 ng/mL | Determined Concentration of test compound in plasma ([6]; 30 min, fumarate salt): 7.77 ng/mL and 25.2 ng/mL and 29.5 ng/mL | Determined Concentration of test compound in plasma, Mean ([6]; 30 min): 20.8 ng/mL | Determined Concentration of test compound in plasma ([6]; 45 min, fumarate salt): 18.0 ng/mL and 18.5 ng/mL and 28.6 ng/mL | Determined Concentration of test compound in plasma, Mean ([6]; 45 min): 21.7 ng/mL | Determined Concentration of test compound in plasma ([6]; 60 min, fumarate salt): 16.9 ng/mL and 31.6 ng/mL and 34.1 ng/mL | Determined Concentration of test compound in plasma, Mean ([6]; 60 min): 27.5 ng/mL | Determined Concentration of test compound in plasma ([6]; 120 min, fumarate salt): 13.7 ng/mL and 11.7 ng/mL and 16.9 ng/mL | Determined Concentration of test compound in plasma, Mean ([6]; 120 min): 14.1 ng/mL | Determined Concentration of test compound in plasma ([6]; 180 min, fumarate salt): 5.83 ng/mL and 2.57 ng/mL and 2.45 ng/mL | Determined Concentration of test compound in plasma, Mean ([6]; 180 min): 3.6 ng/mL | Determined Concentration of test compound in plasma ([6]; Predose): BLQ (Below the lower limit of quantification 0.310 ng/mL) | Determined Concentration of test compound in plasma, Mean ([6]; Predose): BLQ (Below the lower limit of quantification 0.310 ng/mL)
